“Also recorded” adds a separate entry of the source. Like-named read-outs stand apart in the source and are kept apart here.
Experiments:
[1] = system: G. stearothermophilus ATCC 7953 spores; test: Sterile efficacy on inoculated lumens, half-cycle of each TSO3 cycle; type: cell-based; conditions: for sterility result in words, gas replacing ozone after hydrogen peroxide injection: all three cycles, gas injected after hydrogen peroxide
Excerpt: The test evaluated the sterile efficacy on inoculated devices. Inoculated wires were inserted in tubing and afterwards in pouches. The pouches were also placed at the top of the loading carriage in the sterilization chamber.
The same loads were used for the three series of tests performed: ozone, oxygen and nitric oxide. The length, diameter, material and type of tubing were different for each cycle and are described in Table 3. The inoculated lumens were placed in a special load representing an average load for the three cycles.
The lumens used to evaluate the sterile efficacy were inoculated according to protocol MCB-09-A07 rev 9. The wire method was used. The wires were inoculated with 10 μL of a G. stearothermophilus ATCC 7953 spores suspension of 1.0×10^6 to 2.5×10^6 UFC/10 μL. The inoculated wires were left to dry overnight at normal room conditions.
Test loads were exposed to a half-cycle of each cycle. For the experiment with oxygen and nitrogen oxide, ozone was replaced by the gas to be tested. A burette was also plugged on the valve system in order to precisely determine the H2O2 injected volume.
The baseline of sterile efficacy on the inoculated lumens used in each cycle was established using only hydrogen peroxide. Cycles using hydrogen peroxide and ozone were performed to compare the efficacy of oxygen and nitrogen oxide to ozone.
The oxygen was injected in the chamber using the same system as that used for ozone. The ozone generator was turned off.
The NO was injected however directly in the chamber from an independent NO cylinder (Praxair). […] By doing so, the gas was forced into the chamber.
All tests were performed outside in order to limit possible dangers from accidental leaks. A NO detector was used. A long tube was plugged into the catalyst converter unit, to allow the NO to be eliminated far from the set-up. A calculation was performed (see below) to determine the number of valve injections necessary to obtain a concentration of 2 mg/L. • Valve volume: 3.3 mL (Volume calculated in R-1937) • NO Density NTP: 1.25 g/L • Sterilisation chamber volume: 125 L • Finale concentration desired: 2 mg/L • NO Pressure: 3 psig • Corrected volume: 3300×((14.7+3)/14.7)=3973.2 μL • Mass to be injected: 0.002 g/L×125 L=0.25 gno • Masse injected by each injection: 1.25 g/L×0.003974 L=4.9665×10^−3 g/injection • Number of injections required: 0.25 gno/4.9665×10^−3 g/injection=50 injections

spores [2] = test: Sterilization by evaporated hydrogen peroxide solution alone or followed by ozone; type: cell-based
Excerpt: Indeed the evaporated hydrogen peroxide solution injected into the chamber is not sufficient to achieve sterilization, although a 4 log reduction in spores has been observed. […] Such complete sterilization could not be achieved using only the injection of evaporated hydrogen peroxide solution, independent of the amount of hydrogen peroxide solution used and the concentration of the solution. Moreover, high concentrations of hydrogen peroxide reduce compatibility with some instruments. […] In fact the dwelling time after hydrogen peroxide injection appears to have no effect on sterilization efficacy.

spores [3] = conditions: 3.4 mL per pulse; half-cycle of Cycle 1; Teflon 1 mm x 80 cm
Protocol: In order to inject a high volume at once, a valve separated by Teflon tubing was used instead of the normally used microvalve (TSO3 #: AM-213-001). The tubing length was determined by the volume to be injected. Since the volume contained in the valve is significant, two sizes of valves were used. The first type (TSO3 #: CM-900-157) with an orifice of 0.062″, was used for a volume up to 1.5 mL. The second Neptune type, with an orifice of 0.156″, (TSO3 #: CM-900-156), was used for a volume up to 3.5 mL. The larger valve size also helps to push the large liquid volume into the chamber. For the 35 μL volume, a Burket 7616 micropump (TSO3 #: CM-113-001) was used. For the 23 μL volume, a larger, specially-made block was used.
Two cycles were used for this experiment. To test the sterility, Cycle 1 (half-cycle) was used, where the injection step of the conditioning phase was modified with a variation in volume and pulse for each attempt, as previously described. As for the condensation effect, Cycle 3, consisting of four phases, was utilized. This cycle was chosen due to the fact that a greater quantity of hydrogen peroxide was injected for the cycle, making it the worst case scenario. […] After exposure to a half-cycle of Cycle 1, the sterility of each lumen was determined according to MCB-09-A04 rev. 7 by quantitative recovery using the ultrasound technique followed by filtration. […]

[4] = system: spores of G. stearothermophilus; conditions: cited from earlier work
[5] = system: spores of G. stearothermophilus; test: Estimate of spores inactivated by NO / NO2 alone; type: cell-based
Protocol: In this experiment, the amount of NO injected was 2 mg/L. Considering that all NO molecules were transformed in NO2, a D-value of 1.9 minutes for a concentration of 2 mg/L of NO2, only 2.5 log of spores would have been inactivated by the NO2. This less than the 6 log present on the inoculated devices. In reality, the conversion rate of NO in NO2 is probably not 100%, and the D-value is more than 1.9 minutes. Thus the number of spores inactivated by NO only is probably more around 1 log.

OO [H2O2, hydrogen peroxide]
Sterile lumens Cycle 1 ([1]; half-cycle of Cycle 1, Teflon lumen 1 mm x 80 cm, O3 or O2 2 mg/L, NO 2 mg/L): 50%
Sterile lumens Cycle 2 ([1]; half-cycle of Cycle 2, stainless steel lumen 1 mm x 50 cm, O3 or O2 10 mg/L, NO 2 mg/L): 12.5%
Sterile lumens Cycle 3 ([1]; half-cycle of Cycle 3, Teflon lumen 1 mm x 110 cm, O3 or O2 3 mg/L, NO 2 mg/L): 16%
reduction in spores (spores [2]; evaporated hydrogen peroxide solution only, no ozone): 4 log
spore count (spores [3]): zero

[O]N=O [NO2, nitrogen dioxide]
D-value ([4]; 3 mg/L): approximately 1.9 minutes
D-value ([4]; 5.12 mg/L NO2): 0.3 min
spores inactivated by the NO2 ([5]; assuming all NO (2 mg/L) transformed into NO2 and a D-value of 1.9 minutes): 2.5 log

O=O [oxygen]
sterility result in words, gas replacing ozone after hydrogen peroxide injection [1]: ineffective to replace ozone; also recorded: Sterility was not achieved in two of the three cycles

O=[O+][O-] [ozone]
sterilization result in words (spores [2]; 1-10 mg of ozone per liter of sterilization atmosphere added after evaporated hydrogen peroxide, SAL 10^-6): full and complete sterilization

Nitrogen monoxide
sterility result in words, gas replacing ozone after hydrogen peroxide injection [1]: complete sterility in all three cycles
spores inactivated by NO only ([5]; 2 mg/L NO, conversion to NO2 probably not 100%): around 1 log

Source: patent US9101679B2, “Sterilization method and apparatus” (TS03 Inc., priority 2009, dated 2015)
